Converted amounts (≈) assume the structure as drawn. Read-outs that look alike come from different tables or passages of the source.

The nature of one series: Solubility test. Type of series: physicochemical. The procedure, abridged:
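Dissolved concentration determined by LC/MS or SPE/MS (absolute calibration) in diluted filtrates, after 2 μL of 10 mmol/L DMSO stock was added to 198 μL JP 1st or JP 2nd fluid and equilibrated either 1 h with shaking at room temperature or 16 h standing at 25 °C.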

The nature of another series: Metabolic stability test. The series is classed as in vitro ADME. Conditions: human liver microsomes, 37° C., 30 minutes, NADPH. The method, boiled down:
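Parent compound was measured by LC/MS/MS or SPE/MS after a methanol/acetonitrile quench and reported as % remaining, with the 0 min sample set to 100%. Incubations ran 30 min at 37 °C in pH 7.4 Tris buffer containing pooled human liver microsomes at 0.5 mg protein/mL and 1 mmol/L NADPH.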

The target in series [1] is T1, human ether-a-go-go related gene (hERG) channel (Homo sapiens, UniProt Q12809).
T1 construct: expressed in transfected cells; host or cells: CHO cells
Briefly: hERG test. Type of series: cell-based. Conditions: % inhibition of IKr tail peak current at 3 uM; CHO cells expressing hERG. The procedure, abridged: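 IKr was recorded from hERG-expressing CHO cells by automated whole-cell patch clamp at a holding potential of −80 mV. A −50 mV leak step was followed by a 2 s depolarization to +20 mV and a 2 s repolarization to −50 mV, when current was measured.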

The next series has as its target T2, CYP1A2 (Homo sapiens, UniProt P05177).
T2 construct: The commercially available pooled human liver microsomes are used as an enzyme resource; from tissue; host or cells: pooled human liver microsomes
T2 sequence (P05177 1-516): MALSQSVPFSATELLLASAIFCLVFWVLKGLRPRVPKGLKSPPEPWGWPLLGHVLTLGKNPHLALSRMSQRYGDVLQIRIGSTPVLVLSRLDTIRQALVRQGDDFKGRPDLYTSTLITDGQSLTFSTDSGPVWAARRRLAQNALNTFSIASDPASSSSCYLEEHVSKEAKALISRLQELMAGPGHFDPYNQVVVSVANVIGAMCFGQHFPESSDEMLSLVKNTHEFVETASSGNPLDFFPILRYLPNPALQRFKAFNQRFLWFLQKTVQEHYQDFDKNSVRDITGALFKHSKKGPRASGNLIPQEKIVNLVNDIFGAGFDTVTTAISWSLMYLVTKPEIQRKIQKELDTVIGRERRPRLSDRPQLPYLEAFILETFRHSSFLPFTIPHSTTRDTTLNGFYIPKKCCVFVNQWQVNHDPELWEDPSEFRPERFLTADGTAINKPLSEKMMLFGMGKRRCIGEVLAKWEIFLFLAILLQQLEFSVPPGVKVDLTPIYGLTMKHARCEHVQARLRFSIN
The series is described as follows: CYP inhibition test (CYP1A2). Conditions: pooled human liver microsomes; 7-ethoxyresorufin O-deethylation. The series is classed as in vitro ADME. The procedure, abridged:
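Inhibition of CYP1A2 was measured in commercially available pooled human liver microsomes (0.2 mg protein/mL) using 7-ethoxyresorufin O-deethylation with 0.5 μmol/L ethoxyresorufin. Test compound at 1, 5, 10, 20 μmol/L in […] Hepes buffer was incubated at 37° C. after NADPH addition; methanol/acetonitrile=1/1 (v/v) stopped the reaction, and resorufin was read fluorescently.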
(In general: Liver microsomes are a subcellular fraction often used to study metabolism.)

The next series concerns the target T3, CYP2C19 (Homo sapiens, UniProt P33261).
T3 construct: The commercially available pooled human liver microsomes are used as an enzyme resource; from tissue; host or cells: pooled human liver microsomes
Briefly: CYP inhibition test (CYP2C19). Type of series: in vitro ADME. Conditions: pooled human liver microsomes; mephenytoin 4′-hydroxylation. The procedure, abridged: (§1)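 Pooled human liver microsomes (0.2 mg protein/mL) with compound at 1, 5, 10 and 20 μmol/L and NADPH, at 37 °C. Marker substrates: dextromethorphan 5 μmol/L (2D6), terfenadine 1 μmol/L (3A4), S-mephenytoin 50 μmol/L (2C19), tolbutamide 100 μmol/L (2C9). Metabolites were measured by LC/MS/MS, and IC50 was derived by logistic fit of remaining activity against the DMSO control.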

The next series has as its target T4, CYP3A4 (Homo sapiens, UniProt P08684).
T4 construct: The commercially available pooled human liver microsomes are used as an enzyme resource; from tissue; host or cells: pooled human liver microsomes
The series is described as follows: CYP inhibition test (CYP3A4). Conditions: pooled human liver microsomes; terfenadine hydroxylation. Type of series: in vitro ADME. The method, boiled down: as §1

Where [2] appears, read: JP 1st fluid, pH 1.2, simulated gastric fluid, kinetic from dmso stock, read-out: JP1.
Setting [3] is: JP 2nd fluid A, pH 6.8, aqueous buffer, kinetic from dmso stock, read-out: JP2_μM.
The mark [4] stands for this setting: solubility in JP 2nd fluid B, 1% DMSO, *2: shaken for 1 hour at room temperature, read-out: JP2_μM.
[5] abbreviates: JP 2nd fluid B, pH 6.8, aqueous buffer, kinetic from dmso stock, read-out: JP2_μM.

T1 sequence (Q12809 whole entry): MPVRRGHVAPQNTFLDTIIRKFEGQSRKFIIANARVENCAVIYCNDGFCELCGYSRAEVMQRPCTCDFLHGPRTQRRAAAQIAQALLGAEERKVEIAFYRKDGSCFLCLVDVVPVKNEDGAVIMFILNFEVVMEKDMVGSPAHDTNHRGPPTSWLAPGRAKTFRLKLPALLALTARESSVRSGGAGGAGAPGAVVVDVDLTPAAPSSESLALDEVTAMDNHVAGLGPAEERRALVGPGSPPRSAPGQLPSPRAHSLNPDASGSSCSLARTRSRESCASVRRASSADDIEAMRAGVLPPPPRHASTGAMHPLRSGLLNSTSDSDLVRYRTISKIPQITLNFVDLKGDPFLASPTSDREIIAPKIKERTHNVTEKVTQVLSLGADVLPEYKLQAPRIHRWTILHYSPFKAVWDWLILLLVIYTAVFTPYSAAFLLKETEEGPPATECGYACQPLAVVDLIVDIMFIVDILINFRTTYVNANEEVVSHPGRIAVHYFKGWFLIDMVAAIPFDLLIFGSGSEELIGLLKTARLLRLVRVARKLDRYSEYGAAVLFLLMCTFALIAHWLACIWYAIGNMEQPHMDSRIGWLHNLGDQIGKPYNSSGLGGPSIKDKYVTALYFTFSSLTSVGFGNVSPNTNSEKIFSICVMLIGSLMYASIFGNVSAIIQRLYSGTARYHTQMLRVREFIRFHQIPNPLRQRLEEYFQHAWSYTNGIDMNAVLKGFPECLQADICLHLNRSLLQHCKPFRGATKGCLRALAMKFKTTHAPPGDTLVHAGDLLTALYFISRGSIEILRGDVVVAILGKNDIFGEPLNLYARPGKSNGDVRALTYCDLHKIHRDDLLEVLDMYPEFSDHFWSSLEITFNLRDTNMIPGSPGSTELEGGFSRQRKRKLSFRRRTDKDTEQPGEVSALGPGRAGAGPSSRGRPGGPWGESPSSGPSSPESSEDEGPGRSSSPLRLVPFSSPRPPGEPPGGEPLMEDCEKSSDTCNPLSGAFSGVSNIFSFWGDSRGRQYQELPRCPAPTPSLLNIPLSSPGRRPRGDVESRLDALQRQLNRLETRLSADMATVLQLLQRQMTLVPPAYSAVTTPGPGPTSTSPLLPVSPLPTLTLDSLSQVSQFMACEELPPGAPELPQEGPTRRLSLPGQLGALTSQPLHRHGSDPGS
T3 sequence (P33261 whole entry): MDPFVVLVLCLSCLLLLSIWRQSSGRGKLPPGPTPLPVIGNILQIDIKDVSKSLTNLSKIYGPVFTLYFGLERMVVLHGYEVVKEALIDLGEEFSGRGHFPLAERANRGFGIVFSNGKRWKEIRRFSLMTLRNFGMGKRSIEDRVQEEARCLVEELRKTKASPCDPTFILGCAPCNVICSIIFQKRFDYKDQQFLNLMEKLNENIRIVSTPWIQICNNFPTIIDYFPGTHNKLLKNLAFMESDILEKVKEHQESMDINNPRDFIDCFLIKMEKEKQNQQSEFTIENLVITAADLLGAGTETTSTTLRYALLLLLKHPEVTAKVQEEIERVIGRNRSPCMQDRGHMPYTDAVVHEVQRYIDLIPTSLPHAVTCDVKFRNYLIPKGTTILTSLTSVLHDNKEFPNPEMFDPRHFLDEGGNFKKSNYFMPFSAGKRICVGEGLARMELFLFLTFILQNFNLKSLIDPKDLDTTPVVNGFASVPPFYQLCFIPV
T4 sequence (P08684 whole entry): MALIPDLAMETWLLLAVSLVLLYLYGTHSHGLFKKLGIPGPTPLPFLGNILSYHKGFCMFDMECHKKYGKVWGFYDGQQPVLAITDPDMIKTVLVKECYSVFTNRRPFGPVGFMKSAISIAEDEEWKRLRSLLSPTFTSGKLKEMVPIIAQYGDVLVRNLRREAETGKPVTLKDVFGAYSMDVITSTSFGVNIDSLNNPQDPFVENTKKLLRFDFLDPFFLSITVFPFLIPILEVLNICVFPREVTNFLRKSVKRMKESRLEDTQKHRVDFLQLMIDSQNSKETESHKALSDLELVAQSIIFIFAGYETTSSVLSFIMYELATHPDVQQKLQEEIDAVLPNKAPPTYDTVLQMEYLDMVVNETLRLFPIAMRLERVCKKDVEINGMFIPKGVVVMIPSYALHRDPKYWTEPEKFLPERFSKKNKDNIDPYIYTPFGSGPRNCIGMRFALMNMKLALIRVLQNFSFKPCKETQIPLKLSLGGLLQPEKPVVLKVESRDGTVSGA

Consider `C[C@@]1(c2cc(NC(=O)c3ccc(C#N)cn3)ccc2F)C[C@@](C)(C(F)(F)F)OC(N)=N1` [Compound I-7], for which the solubility kinetic at 16 h in the series “Solubility test” (JP 1st fluid, 25 °C, pH 1.2, simulated gastric fluid, kinetic from dmso stock, read-out: JP1) was > 50 µM; in “Solubility test” (JP 2nd fluid A, 25 °C, pH 6.8, aqueous buffer, kinetic from dmso stock, read-out: JP2_μM) it was > 50 µM. Further, the remaining % in the series “Metabolic stability test” amounted to 82%. The “hERG_3 uM_%” value in series [1] worked out at 47.4%.
Take `C[C@H]1[C@@H](C(F)(F)F)OC(N)=N[C@]1(C)c1cc(NC(=O)c2cnc(OCF)cn2)ccc1F` [Compound I-41]: the solubility kinetic at 1 h in the series “Solubility test” (setting [2]) and in “Solubility test” (setting [3]) was > 50 µM each time. The remaining % in “Metabolic stability test” worked out at 105%. Besides, the “hERG_3 uM_%” value in series [1] is 24.8%.
With `C[C@H]1SC(N)=N[C@](C)(c2cc(NC(=O)c3cnc(OCC(F)(F)F)cn3)ccc2F)[C@H]1F` [Compound I-46], the IC50 on CYP1A2 and against CYP2C19 was ≥ 20 µM throughout. Further, the solubility kinetic at 1 h is > 50 µM in “Solubility test” (setting [2]) and 8.3 µM (≈ 3.95 µg/mL) in “Solubility test” (setting [3]). Further, in the series “Metabolic stability test”, the remaining % is 97.8%. In addition, the “hERG_3 uM_%” value in series [1] was determined as 33.4%.
On to `C[C@H]1SC(N)=N[C@](C)(c2cc(NC(=O)c3ccc(F)cn3)ccc2F)C12CC(F)(F)C2` [Compound I-63], for which the IC50 at CYP1A2 and at CYP2C19 was ≥ 20 µM each time. Further, in “Solubility test” (setting [2]), the solubility kinetic at 1 h is > 50 µM. Further, the solubility kinetic at 16 h in “Solubility test” (setting [4]) is given as >50 µM. In addition, the remaining % in the series “Metabolic stability test” amounted to 75.8%. Moreover, the “hERG_3 uM_%” value in series [1] is recorded as 53.2%.
With `CC[C@H]1SC(N)=N[C@](C)(c2cc(NC(=O)c3ccc(OCF)cn3)ccc2F)[C@H]1F` [Compound I-67], the IC50 against CYP1A2 and against CYP2C19 was ≥ 20 µM in each case. Also, the solubility kinetic at 1 h in “Solubility test” (setting [2]) was > 50 µM. The solubility kinetic at 16 h in “Solubility test” (setting [4]) is recorded as >50 µM. In addition, the remaining % in the series “Metabolic stability test” was 69%. Also, the “hERG_3 uM_%” value in series [1] came to 56.5%.
On to `CC(F)(F)[C@H]1OC(N)=N[C@](C)(c2cc(NC(=O)c3cnc(OCC(F)(F)F)cn3)ccc2F)[C@H]1F` [Compound I-75], for which the IC50 on CYP1A2 and against CYP2C19 was ≥ 20 µM in each case. The solubility kinetic at 1 h in the series “Solubility test” (setting [2]) is > 50 µM; in “Solubility test” (setting [5]), 3 µM (≈ 1.53 µg/mL). The remaining % in the series “Metabolic stability test” is 85.2%. In series [1], the “hERG_3 uM_%” value turned out to be 21.3%.
Regarding `CC(F)(F)[C@H]1OC(N)=N[C@](C)(c2cc(NC(=O)c3cnc(OCC(F)F)cn3)ccc2F)[C@H]1F` [Compound I-77], the concentration for half-maximal inhibition (IC50) against CYP1A2 and against CYP2C19 was ≥ 20 µM throughout. Further, the values for the solubility kinetic at 1 h in the series “Solubility test” (setting [2]) and in “Solubility test” (setting [5]) were > 50 µM and 11.1 µM (≈ 5.45 µg/mL), respectively. Further, the remaining % in the series “Metabolic stability test” is recorded as 93.1%. In series [1], the “hERG_3 uM_%” value came to 44.1%.
With `COCC(F)(F)[C@H]1OC(N)=N[C@](C)(c2cc(NC(=O)c3cnc(OCF)cn3)ccc2F)[C@H]1F` [Compound I-79], the figures for the 50% inhibitory concentration (IC50) on CYP1A2, against CYP2C19 and at CYP3A4 were ≥ 20 µM, ≥ 20 µM and ≥ 10 µM, respectively. Also, the solubility kinetic at 1 h in the series “Solubility test” (setting [2]) was > 50 µM. In addition, the solubility kinetic at 16 h in “Solubility test” (setting [4]) is recorded as >50 µM. In series [1], the “hERG_3 uM_%” value stood at 7.8%.
Regarding `C[C@]1(c2cc(NC(=O)c3cnc(OCF)cn3)ccc2F)N=C(N)O[C@H](C(F)(F)C2CC2)[C@@H]1F` [Compound I-82], the IC50 against CYP1A2 and at CYP2C19 was ≥ 20 µM in each case. Also, the solubility kinetic at 1 h in “Solubility test” (setting [2]) is > 50 µM. Besides, the solubility kinetic at 16 h in the series “Solubility test” (setting [4]) is on record as >50 µM. For the same compound, the remaining % in the series “Metabolic stability test” came out at 96.5%. For the same compound, the “hERG_3 uM_%” value in series [1] was determined as 17.5%.
Consider `COc1cnc(C(=O)Nc2ccc(F)c([C@@]3(C)N=C(N)O[C@H](C(F)(F)C4CC4)[C@@H]3F)c2)cn1` [Compound I-83], for which the IC50 against CYP1A2 and at CYP2C19 was ≥ 20 µM each time. Besides, the figures for the solubility kinetic at 1 h in “Solubility test” (setting [2]) and in the series “Solubility test” (setting [5]) were > 50 µM and 29.6 µM (≈ 13.8 µg/mL), respectively. For the same compound, the remaining % in “Metabolic stability test” came to 55.3%. The “hERG_3 uM_%” value in series [1] worked out at 18.1%.
Consider `C[C@H]1SC(N)=N[C@](C)(c2cc(NC(=O)c3cnc(OCC4CC4)cn3)ccc2F)[C@H]1F` [Compound I-85], for which the IC50 against CYP1A2 and against CYP2C19 was ≥ 20 µM in each case. The solubility kinetic at 1 h in “Solubility test” (setting [2]) was 47.2 µM (≈ 21.1 µg/mL); in the series “Solubility test” (setting [5]), 0.6 µM (≈ 0.269 µg/mL). Moreover, the remaining % in “Metabolic stability test” was found to be 93.2%. Moreover, in series [1], the “hERG_3 uM_%” value turned out to be 41.4%.

What is called IC50 is the concentration that inhibits the measured activity by half. Higher therefore signals lower potency.

The values above are taken from US20170073337A1, “DIHYDROTHIAZINE AND DIHYDROOXAZINE DERIVATIVES HAVING BACE1 INHIBITORY ACTIVITY” (Shionogi & Co., Ltd., priority 2014, published 2017).
